Values of other authors as cited in patent publication US9463180B2, “Treatment of molluscum contagiosum” (QUADEX PHARMACEUTICALS, LLC, priority 2013, dated 2016).

Test system: molluscum contagiosum
Settings: small studies; applied 3 times per week, left on skin 6 to 10 hours

CC(C)Cn1cnc2c(N)nc3ccccc3c21 [Imiquimod]
success rate: about 80%
